What was measured:
[1] = system: BH3 binding groove of Bcl-2, Bcl-XL, and Bcl-w; conditions: cited from earlier work
Mcl-1 and Bfl-1 = conditions: cited from earlier work
[2] = system: wild-type and Bax/Bak-deficient fibroblasts; conditions: cited from earlier work
A549 cells = assay: BH3-M6 and CEP-1612 alone or in combination in A549 cells (MTT, TUNEL, PARP cleavage); format: cell-based, human
Procedure: FIG. 7 is a series of images illustrating BH3-M6 sensitizes A549 cells to the proteasome inhibitor CEP-1612 to induce apoptosis. A549 cells were treated with the indicated concentrations of either drug alone or in combination and then processed for various assays as described in EXPERIMENTAL PROCEDURES. (A) Cell viability as measured by MTT assay after 72 h of treatment, error bars indicate standard deviations of triplicates. (B) apoptosis as determined by TUNEL assay after 48 h of treatment. (C) PARP cleavage after 24 hours of drug treatment.
Release of cytochrome c from isolated mitochondria was measured as described by Takahashi et al. (Takahashi, Y., Karbowski, M., Yamaguchi, H., Kazi, A., Wu, J., Sebti, S. M., Youle, R. J., and Wang, H. G. (2005) Mol Cell Biol 25, 9369-9382) Cell-free caspase-3/-7 activity and the extent of PARP cleavage was determined as described previously. (Kazi, A., Smith, D. M., Zhong, Q., and Dou, Q. P. (2002) Mol Pharmacol 62, 765-771) MTT (3-(4,5-dimethylthiazol-2-yl)-2,5-diphenyltetrazolium bromide) and TUNEL assays were performed according to Kazi et al., both of which are incorporated herein by reference. (Kazi, A., Lawrence, H., Guida, W. C., McLaughlin, M. L., Springett, G. M., Berndt, N., Yip, R. M. L., and Sebti, S. M. (2009) Cell Cycle 8, 1940-1951)
To determine whether BH3-M6 sensitizes cells to apoptosis induced by other stimuli, the inventors treated A549 cells with BH3-M6 and CEP-1612 (Sun, J., Nam, S., Lee, C. S., Li, B., Coppola, D., Hamilton, A. D., Dou, Q. P., and Sebti, S. M. (2001) Cancer Res 61, 1280-1284), either alone or in combination. BH3-M6 and CEP-1612 alone had little effect on cell viability (about 20% and about 28%, respectively) (FIG. 7A) and apoptosis (about 5% and about 8%, respectively) (FIG. 7B). […] The results from FIG. 7C were obtained after about 24 hours of drug treatment, whereas those from FIG. 5C were obtained after about 48 hours of drug treatment.

SMILES | affinity for BH3 binding groove of Bcl-2, Bcl-XL, and Bcl-w [1] | binding to Mcl-1 and Bfl-1 (Mcl-1 and Bfl-1) | killing of wild-type vs Bax/Bak-deficient cells [2] | inhibition of cell viability (A549 cells; A549, MTT, 72 h) | induction of apoptosis (A549 cells; A549, TUNEL, 48 h) | PARP cleavage (A549 cells; A549, immunoblot, about 24 hours)
CN(C)CC[C@H](CSc1ccccc1)Nc1ccc(S(=O)(=O)NC(=O)c2ccc(N3CCN(Cc4ccccc4-c4ccc(Cl)cc4)CC3)cc2)cc1[N+](=O)[O-] [ABT-737] | high affinity | only binds weakly | kills only wild-type, but not Bax/Bak-deficient cells |  |  | 
CC(C)C[C@@H](C=O)NC(=O)[C@H](CCCN=C(N)N[N+](=O)[O-])NC(=O)C(CCCCCCCCN1C(=O)c2ccccc2C1=O)C1CCCC1 (stereo partly drawn) [CEP-1612] |  |  |  | about 28% | about 8% | but not either drug alone

— patent publication US20130295185A1, “COMPOUNDS AND METHODS FOR INDUCING APOPTOSIS IN CANCER CELLS USING A BH3 ALPHA-HELICAL MIMETIC” (H. Lee Moffitt Cancer Center and Research Institute, Inc., priority 2011, published 2013)
